The source of these data is ChEMBL document CHEMBL6114953, “De novo discovery of cyclic peptide inhibitors of IL-11 signaling” (Bioorg Med Chem, 2025).

Activity calls are given as the source filed them. The rule behind the calls is not given here. Where a SMILES comes first, the peptide text is derived from it. Bridges are numbered along the chain shown (N, C = ends). [ ]: non-standard residue; d: D form. Nle = CCCC[C@H](N)C(=O)O

Experiment [1] addresses T1, Interleukin-11 receptor subunit alpha (Homo sapiens) (UniProt Q14626).
T1 sequence (whole entry): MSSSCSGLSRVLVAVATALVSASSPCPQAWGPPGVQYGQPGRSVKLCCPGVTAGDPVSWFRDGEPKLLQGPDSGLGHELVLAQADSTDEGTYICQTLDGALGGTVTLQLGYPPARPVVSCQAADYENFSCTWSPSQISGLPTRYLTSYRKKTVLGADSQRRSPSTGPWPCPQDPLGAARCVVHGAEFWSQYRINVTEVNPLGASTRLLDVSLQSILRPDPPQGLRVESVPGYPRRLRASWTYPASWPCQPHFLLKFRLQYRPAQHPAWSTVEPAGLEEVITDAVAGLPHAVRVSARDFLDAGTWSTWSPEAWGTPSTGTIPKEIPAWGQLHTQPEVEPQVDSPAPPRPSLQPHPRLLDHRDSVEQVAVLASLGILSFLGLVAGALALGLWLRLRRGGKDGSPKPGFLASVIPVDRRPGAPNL
Nature of the experiment: Binding affinity to CAP chip-immobilized biotinylated recombinant human IL-11Ralpha by SPR analysis.

Experiment [2] can be described thus: Binding affinity to CAP chip-immobilized IL-6 (unknown origin) by SPR analysis. The note with it: Homo sapiens.
The species entered for the next experiment is Homo sapiens. Nature of the experiment: Binding affinity to CAP chip-immobilized IL-6R (unknown origin) by SPR analysis.
Experiment [3] can be described thus: Inhibition of his-tagged recombinant human IL-11 (22 to 199 residues) expressed in HEK293 cells/biotinylated recombinant human IL-11Ralpha (24 to 370 residues) expressed in HEK293 cells incubated for 1 hr by AlphaLISA assay. The class given is cell-based.
For experiment [4], the target named is T2, Interleukin-11 (Homo sapiens) (UniProt P20809).
T2 sequence (whole entry): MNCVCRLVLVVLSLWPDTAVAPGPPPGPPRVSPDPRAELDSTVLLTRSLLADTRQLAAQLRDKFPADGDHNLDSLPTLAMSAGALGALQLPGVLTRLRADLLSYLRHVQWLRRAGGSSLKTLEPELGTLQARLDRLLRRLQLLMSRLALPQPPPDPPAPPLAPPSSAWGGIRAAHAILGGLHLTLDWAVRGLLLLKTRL
The experiment is described as follows: Binding affinity to CAP chip-immobilized IL-11 (unknown origin) by SPR analysis.

The target of a further experiment is T3, Interleukin-11 (Homo sapiens, UniProt P20809).
T3 sequence (P20809 whole entry): T2 sequence (whole entry)
The experiment is described as follows: Binding affinity to CAP chip-immobilized IL-11 (unknown origin) assessed as dissociation constant by SPR analysis.

For the compound `CC(C)C[C@@H]1NC(=O)[C@@H]2CCCN2C(=O)[C@H](CC(C)C)NC(=O)[C@H](Cc2c[nH]c3ccccc23)NC(=O)[C@@H](NC(=O)[C@H](Cc2ccccc2)NC(=O)[C@H](CCC(=O)O)NC(=O)[C@@H](NC(=O)[C@@H](NC(=O)[C@H](CCC(=O)O)NC(=O)[C@H](C)N)[C@@H](C)O)C(C)C)CSSC[C@@H](C(N)=O)NC(=O)[C@H](Cc2ccccc2)NC(=O)[C@H](Cc2ccc(O)cc2)NC(=O)[C@H](Cc2c[nH]c3ccccc23)NC(=O)[C@H](Cc2c[nH]cn2)NC(=O)[C@H](CO)NC1=O` (H-AETVEFCWLPLSHWYFC-NH2; disulfide 7-17), the result (in experiment [1]; in experiment [2]; in the experiment listed under Homo sapiens; in experiment [4]) was inactive. For the same compound, the inhibitory constant (Ki) in experiment [3] turned out to be 1360 nM.

Regarding `Cc1c(-c2ccc(O)cc2)n(Cc2ccc(OCCN3CCCCCC3)cc2)c2ccc(O)cc12` [BAZEDOXIFENE], the outcome (in experiment [1]; in experiment [2]; in the experiment listed under Homo sapiens) was inactive. Besides, in experiment [3], the Ki amounted to 11800 nM.

In the case of `CSCC[C@@H]1NC(=O)[C@H](Cc2c[nH]cn2)NC(=O)[C@H](CO)NC(=O)[C@@H](NC(=O)[C@H](Cc2c[nH]c3ccccc23)NC(=O)[C@H](Cc2ccc(O)cc2)NC(C)=O)CSSC[C@@H](C(=O)N[C@@H](Cc2c[nH]c3ccccc23)C(=O)N[C@@H](CCCNC(=N)N)C(N)=O)NC(=O)[C@H](C(C)C)NC(=O)[C@H]([C@@H](C)O)NC(=O)[C@H]([C@@H](C)O)NC(=O)[C@H](Cc2ccc(O)cc2)NC(=O)[C@H](Cc2ccc(O)cc2)NC1=O` (Ac-YWCSHMYYTTVCWR-NH2; disulfide 3-12), the result (in experiment [1]; in experiment [2]; in the experiment filed under Homo sapiens) was inactive. Moreover, at Interleukin-11, the Kd was found to be 140 nM. The Ki in experiment [3] came to 300 nM.

Take `C=C(CCCCC)[C@@H](O)[C@H](C)C(=O)N1C(=O)OC[C@@H]1C(C)C`: the result (in experiment [1]; in experiment [2]; in the experiment listed under Homo sapiens; in experiment [4]) was inactive. Moreover, the Ki in experiment [3] is > 28000 nM.

For `CC(C)C[C@@H]1NC(=O)[C@@H]2CCCN2C(=O)[C@H](C(C)C)NC(=O)[C@H](Cc2c[nH]c3ccccc23)NC(=O)[C@@H](NC(=O)[C@H](Cc2ccccc2)NC(=O)[C@H](CCC(=O)O)NC(=O)[C@@H](NC(=O)[C@@H](NC(=O)[C@H](CCC(=O)O)NC(=O)[C@H](C)N)[C@@H](C)O)C(C)C)CSSC[C@@H](C(N)=O)NC(=O)[C@H](C(C)C)NC(=O)[C@H](CCC(N)=O)NC(=O)[C@H](Cc2ccccc2)NC(=O)[C@H](Cc2ccc(O)cc2)NC(=O)[C@H](CO)NC1=O` (H-AETVEFCWVPLSYFQVC-NH2; disulfide 7-17), the result (in experiment [1]; in experiment [2]; in the experiment filed under Homo sapiens; in experiment [4]) was inactive. For the same compound, the inhibitory constant (Ki) in experiment [3] came to 1500 nM.

On to `C[C@@H]1NC(=O)[C@H](CCCNC(=N)N)NC(=O)[C@H](CCCNC(=N)N)NC(=O)CNC(=O)[C@@H](N)CSSC[C@@H](C(N)=O)NC(=O)[C@H](CO)NC(=O)CNC(=O)CNC1=O` (H-CGRRAGGSC-NH2; disulfide 1-9), for which the result (in experiment [1]; in experiment [2]; in the experiment filed under Homo sapiens; in experiment [4]) was inactive. The Ki in experiment [3] is > 28000 nM.

In the case of `CC(C)[C@@H]1NC(=O)[C@H](CCCNC(=N)N)NC(=O)[C@@H]2CCCN2C(=O)[C@H](CC(=O)O)NC(=O)[C@H](Cc2ccc(O)cc2)NC(=O)[C@H](Cc2c[nH]c3ccccc23)NC(=O)CNC(=O)[C@@H](NC(=O)[C@H](Cc2ccc(O)cc2)NC(=O)[C@H](Cc2c[nH]c3ccccc23)NC(=O)[C@H](Cc2ccccc2)NC(=O)[C@H](CCC(=O)O)NC(=O)[C@@H](NC(=O)[C@@H](NC(=O)[C@H](CCC(=O)O)NC(=O)[C@H](C)N)[C@@H](C)O)C(C)C)CSSC[C@@H](C(=O)N[C@@H](CO)C(=O)N[C@@H](Cc2ccc(O)cc2)C(N)=O)NC(=O)CNC1=O` (H-AETVEFWYCGWYDPRVGCSY-NH2; disulfide 9-18), the outcome (in experiment [1]; in experiment [2]; in the experiment listed under Homo sapiens) was inactive. In addition, at Interleukin-11, the dissociation constant Kd came to 2600 nM. Moreover, the inhibition constant Ki in experiment [3] turned out to be 500 nM.

As to `CSCC[C@@H]1NC(=O)[C@H](Cc2c[nH]cn2)NC(=O)[C@H](CO)NC(=O)[C@@H](NC(=O)[C@H](Cc2c[nH]c3ccccc23)NC(=O)[C@H](Cc2ccc(O)cc2)NC(C)=O)CSSC[C@@H](C(N)=O)NC(=O)[C@H](C(C)C)NC(=O)[C@H]([C@@H](C)O)NC(=O)[C@H]([C@@H](C)O)NC(=O)[C@H](Cc2ccc(O)cc2)NC(=O)[C@H](Cc2ccc(O)cc2)NC1=O` (Ac-YWCSHMYYTTVC-NH2; disulfide 3-12), the inhibition constant Ki in experiment [3] is > 28000 nM.

As for `CCCC[C@@H]1NC(=O)[C@H](Cc2c[nH]cn2)NC(=O)[C@H](CO)NC(=O)[C@@H](NC(=O)[C@H](Cc2c[nH]c3ccccc23)NC(=O)[C@H](Cc2ccc(O)cc2)NC(C)=O)CSSC[C@@H](C(=O)N[C@@H](Cc2c[nH]c3ccccc23)C(=O)N[C@@H](CCCNC(=N)N)C(N)=O)NC(=O)[C@H](C(C)C)NC(=O)[C@H]([C@@H](C)O)NC(=O)[C@H]([C@@H](C)O)NC(=O)[C@H](Cc2ccc(O)cc2)NC(=O)[C@H](Cc2ccc(O)cc2)NC1=O` (Ac-YWCSH[Nle]YYTTVCWR-NH2; disulfide 3-12), the Ki in experiment [3] amounted to 900 nM.
